{"source": "patent US20220354835A1", "about": "“COMPOUNDS FOR DEGRADING TAU PROTEIN AGGREGATES AND USES THEREOF” (Aprinoia Therapeutics Limited, priority 2019, published 2022)", "key": {"[1]": {"target": "T1, heparin-induced aggregated tau (aTau), full-length 2N4R human Tau (Homo sapiens, UniProt P10636)", "T1 construct": "transformed with a full-length 2N4R tau expression plasmid; made in house; host or cells: E. coli BL21", "T1 sequence (P10636 1-441 isoform P10636-8)": "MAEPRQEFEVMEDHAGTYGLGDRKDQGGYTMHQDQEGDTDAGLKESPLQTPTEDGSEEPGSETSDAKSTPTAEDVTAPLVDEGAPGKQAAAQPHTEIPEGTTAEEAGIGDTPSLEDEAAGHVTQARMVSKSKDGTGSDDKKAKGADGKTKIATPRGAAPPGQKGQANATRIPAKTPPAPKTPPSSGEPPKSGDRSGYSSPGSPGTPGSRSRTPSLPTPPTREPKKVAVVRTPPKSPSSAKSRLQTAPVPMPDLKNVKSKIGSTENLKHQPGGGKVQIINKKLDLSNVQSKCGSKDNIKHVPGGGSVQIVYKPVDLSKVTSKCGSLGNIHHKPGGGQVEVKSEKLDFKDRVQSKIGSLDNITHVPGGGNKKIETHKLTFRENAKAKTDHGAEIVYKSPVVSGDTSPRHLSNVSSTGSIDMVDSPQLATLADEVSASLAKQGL", "assay": "In vitro fluorometric aTau binding assay", "conditions": "0.04 μM aTau, serially diluted compound 10 to 0.00017 μM, 37° C. 1 hour, fluorescence", "procedure": "(§1) (A) Expression and purification of human Tau: 1 mM IPTG (Sangon Biotech, Cat. No A100487) was used to induce production of tau by bacteria (BL21, Invitrogen, Cat. No C600003) transformed with a full-length 2N4R tau expression plasmid. After 3 hours, cell pellet was resuspended in lysis buffer (100 mM PIPES, 1 mM EGTA, 1 mM MgSO4, pH 6.8) and lysed by sonication followed by centrifugation (15,000 rpm, 15 min, 4° C.). The supernatant was then placed in a boiling water bath for 20 min, followed by centrifugation (15,000 rpm, 15 min, 4° C.). Supernatant was loaded onto a Q-Sepharose® Fast Flow column (GE healthcare, Cat. No 17-0510-01), the flow-through fraction was loaded onto an SP-Sepharose® Fast Flow column (GE healthcare, Cat. No 17-0729-01), and tau protein was eluted with elution buffer (100 mM PIPES, 1 M NaCl, 1 mM EGTA, 1 mM MgSO4, 0.2 M NaCl, pH 6.8). Collected fractions of tau-containing eluates were pooled, concentrated and dialyzed against HEPES buffer (25 mM HEPES, 0.1 mM EDTA, 0.5 mM DTT, 100 mM NaCl, pH 7.2) and stored at −80° C. in small aliquots until use. Protein concentration was determined by UV absorption.\n(§2) (B) Preparation of heparin-induced aggregated tau (aTau): 2 μM of tau prepared in 30 mM Tris-HCl, pH 7.5 buffer was incubated in tube with 15 μM heparin (Sigma, Cat. No H3149) at 37° C. for 24 hours.\n(D) In vitro fluorometric aTau binding assays: 2 μM aTau was diluted to 0.04 μM with 30 mM Tris-HCl (pH 6.8), and then incubated with serially diluted compound (three-fold serial dilutions, from 10 to 0.00017 μM) in a 96-well plate (Corning, Cat. No 3573) at 37° C. for 1 hour. Fluorescence intensity (excitation/emission=370/500 nm) of APN-0729 was read by microplate spectrometer (EnSpire 2300, PerkinElmer). Compound Kd values were calculated using the following equation: Y=Bmax* X (Kd+X), where X is the concentration of compound; Y is the fluorescence signal of (compound+aTau)−(compound+DMSO); and Bmax is the maximum signal."}, "[2]": {"assay": "In vivo pharmacokinetic study of plasma and brain tissue", "conditions": "mice, 1 mg/kg, intravenous", "procedure": "To determine whether the compounds of the present disclosure are capable of crossing the blood brain barrier (BBB), example compound 160313 was administered to mice in a pharmacokinetic study (1 mg/kg, intravenous) of plasma and brain tissue.\nAnimal Husbandry: Mice were housed at animal room environment with ventilation 15 times/hour, lighting 12 hours/day, temperature 20° C. to 24° C. and humidity 40% to 70%. The study rooms were disinfected and cleaned prior to the start of the study and the operation area was cleaned after each dosing or sampling during the study conduct. All animals had free access to food and water during the study. The animals had access to Certified Rodent Diet and water ad libitum. The nutritional composition and levels of contaminants of the diet and impurities and contaminants of the water were monitored by third organization. The health status of the animals was evaluated in accordance with accepted animal husbandry procedures and deemed suitable for experimental use. […]\nBioanalytical Method Development: The concentrations of compound in plasma and brain samples were determined using a liquid chromatography with tandem mass spectrometry (LC-MS/MS) based method."}, "[3]": {"target": "T1, heparin-induced aggregated tau (aTau), full-length 2N4R human Tau", "assay": "PBB5 competition assay", "assay_type": "binding", "conditions": "0.12 μM aTau", "procedure": "as §1, §2\n(E) PBBS competition assay: 2 μM of aTau was diluted to 0.12 μM by […] (pH 6.8) and then incubated with 0.1 μM 2-(4-(2-(methylamino)pyridine-5-yl)-1,3-butadiene-1-yl)benzothiazole-6-ol (PBB5) and serially diluted compound (three-fold serial dilution, from 10 to 0.00017 μM) in a 96-well plate (Corning, Cat. No 3573) at 37° C. for 1 hour. Fluorescence intensity (excitation/emission=530/690 nm) of PBB5 was read by microplate spectrometer (EnSpire 2300, PerkinElmer). Percentage of competition was calculated using the following equation: (Max−well of compound alone)/(Max−Min)*100%, where Max=(Tau+PBB5) signals−(buffer+PBB5) signals; and Min=(buffer+PBB5) signals−(buffer+PBB5) signals.\nThe IC50 value of each compound was calculated with GraphPad Prism software using the “4 Parameter Logistic Model or Sigmoidal Dose-Response Model”:\nY=Bottom+(Top−Bottom)/(1+(IC50/×)^HillSlope)"}}}
{"smiles": "CN(C)c1ccc(-c2ccc(-c3nc4ccc(NCCOCCOc5ccc6c(c5)CN(C5CCC(=O)NC5=O)C6=O)cc4s3)cc2)cn1", "note": "(stereo not shown) [Compound 160313, 3-[6-[2-[2-[[2-[4-[6-(dimethylamino)pyridin-3-yl]phenyl]-1,3-benzothiazol-6-yl]amino]ethoxy]ethoxy]-3-oxo-1H-isoindol-2-yl]piperidine-2,6-dione]", "values": [{"measurement": "Kd", "setting": "[1]", "value": 80, "unit": "nM"}, {"measurement": "Cmax, Brain", "setting": "[2]", "value": 111, "unit": "ng/mL"}, {"measurement": "IC50", "setting": "[3]; 0.1 μM PBB5, 37° C. 1 hour, PBB5 fluorescence 530/690 nm", "value": 220, "unit": "nM"}, {"measurement": "Emax", "setting": "[3]; 0.1 μM PBB5, compound up to 10 μM, read-out: Competition Assay with PBB5: Bmax (%)", "value": 64, "unit": "%"}]}
